Patent US20240261305A1 (priority 2021, published 2024)

Legend:
in vivo [1] = conditions: rat, po, rats
[2] = after oral administration; cited from earlier work
[3] = Stability of CBD at room temperature and in the dark; format: physicochemical; conditions: room temperature; for degradation of CBD: 3 months
in vivo [4] = conditions: mouse, po, mice
[5] = kinetic detection (oral bioavailability), sesame oil alone
[6] = oral bioavailability, administered as an unformulated oil extract
[7] = oral bioavailability, formulated (mixture of sesame oil, amaranth oil and squalene)

SMILES: C=C(C)[C@@H]1CCC(C)=C[C@H]1c1c(O)cc(CCCCC)cc1O [CBD, cannabidiol]
- bioavailability (in vivo [1]; [5]): 25 to 30%
- bioavailability (in vivo [1]; [6]): 5 to 6%
- bioavailability (in vivo [1]; [7]): ~60%
- time to reach peak plasma concentration [2]: 1 to 4 h
- degradation of CBD ([3]; CBD from ethanolic cannabis extract formulated in a mixture of sesame oil, amaranth and squalene (at least 0.1%)): 3%
- degradation of CBD ([3]; CBD in products obtained by ethanolic extraction from cannabis): 8%
- degradation of CBD ([3]; CBD in pure form (both amorphous and crystalline)): 11%
- degradation of CBD ([3]; pure CBD formulated in a mixture of sesame oil, amaranth and squalene (at least 0.1%)): 4%
- instability compared with unformulated CBD ([3]; CBD solubilised in sesame oil or amaranth oil or in squalene alone): did not show a statistically significant difference
- bioavailability (in vivo [4]; [5]): 25 to 30%
- bioavailability (in vivo [4]; [6]): 5 to 6%
- bioavailability (in vivo [4]; [7]): ~50%
